Results published in US12161630B2, “Methods to control infection using new generation small molecule growth inhibitors” (priority 2017, dated 2024).

Assays:
chicken red blood cells = test: Hemolytic activity in chicken RBCs; type: cell-based; details: 200 μM, one-hour treatment
Experimental: Briefly, 200 μl of 10% sheep red blood cells (RBCs; LAMPIRE Biological Laboratories, Pipersville, PA) suspension was incubated with 1 μl of SMs (200 μM) for one hour at 37° C. in a sterile, non-treated, flat bottom plate 96-well. After incubation, the plate was centrifuged at 4000 rpm for 5 min at 4° C., then placed on ice for five min. 100 μL of the supernatant was transferred into a new sterile, treated, flat bottom 96-well plate, and the OD was measured at 540 nm. For this experiment, 2% DMSO (negative control) and 0.1% Triton-100X (positive control) were used. % Hemolysis=(OD540 SM−OD540 DMSO)/(OD540 1× triton−OD540 PBS)×100. Similar experiment was performed with chicken RBCs (OARDC, Ohio).

C. jejuni 81-176 = test: Activity on avian pathogens at 200 μM, C. jejuni; type: cell-based, Campylobacter jejuni
Experimental: (§1) FIGS. 1(A-E). Selection of potent Salmonella growth inhibitors. FIG. 1A: High-throughput screening of 4182 SMs against S. typhimurium WT at 200 μM. Negative value: growth inhibition; Positive value: growth stimulation compared to S. typhimurium growth not treated. The black line represents growth inhibition caused by 2% DMSO. FIG. 1B: Activity of 19 S. typhimurium growth inhibitors against additional Salmonella serotypes. Light grey cells: total growth inhibition; dark grey cells: bacterial growth observed; black cells: not determined. FIG. 1C: Dose-response assays of the selected 19 SMs against S. typhimurium WT. […] The black line represents a cut off of nine serotypes killed per SM. FIG. 1E: Activity spectra of the selected four SMs at 200 μM each on several avian-pathogens (Campylobacter jejuni, Escherichia coli APEC, and Mycoplasma gallisepticum) and beneficial gut bacteria (remaining species). E. coli APEC refers to Avian Pathogenic E. coli and includes E. coli O1, O2, O8, O15, O18, O35, O78, O109, and O115. Light grey cells: cidal effect; dark grey cells: bacterial growth observed. Left side: phylogenetic tree based on NCBI taxonomic ID built with PhyloT software.
(§2) The selected four SMs were tested on twelve beneficial-commensal gut bacteria at 200 μM (FIG. 1E). […] These four SMs were also growth inhibitors of other avian pathogens at 200 μM (unpublished data, FIG. 1E). […]

[1] = system: S. typhimurium WT internalized in HD11 cells; test: S. typhimurium intracellular survival in infected HD11 cells; type: cell-based; details: Salmonella enterica
Experimental: (§3) Effect of the four SMs on S. typhimurium intracellular survival in cells lines: The ability of four SMs to clear S. typhimurium WT […] was evaluated using three cell lines (Caco-2 cells, HD11, and THP-1 cells). The Salmonella intracellular survival as assessed as described (13). A multiplicity of infection “MOI” of 10 was used. Infected cells were treated with 1 μl of SMs (final concentration ranged between 100 μM and 6.25 μM) at 37° C. for 24 hrs in humidified, 5% CO2 incubator. Following incubation, cells were washed once with 150 μl of 1×PBS, lysed with 0.1% Triton-100X, serial ten-fold diluted in 1×PBS, and plated on agar plate. Plates were incubated at 37° C. for 24 hrs to determine the intracellular survival. Cells not infected and not treated, and cells infected and treated with 2% DMSO were used as controls.

C. clostridioforme = test: Activity spectrum at 200 μM, C. clostridioforme; type: cell-based, Clostridium clostridioforme
Experimental: (§4) SM activity spectrum: The 128 selected SMs were tested for antimicrobial effects on nine different serotypes frequently implicated in foodborne gastroenteritis outbreaks. Later in the study, the four best SMs were tested against twelve beneficial/commensal gut bacteria. Both screens were performed at 200 μM as described in the primary screening. Growth conditions for each strain are described in Table 1.

[2] = system: Avian Pathogenic E. coli (O1, O2, O8, O15, O18, O35, O78, O109, and O115); test: Activity on avian pathogens at 200 μM, Avian Pathogenic E. coli; type: cell-based, Escherichia coli
Experimental: as §1, §2

[3] = system: twelve beneficial-commensal gut bacteria; test: Activity spectrum on twelve beneficial-commensal gut bacteria at 200 μM; type: cell-based
Experimental: as §4

[4] = system: internalized Salmonella in Caco-2, HD11 and THP-1 cells; test: S. typhimurium clearance in infected cell lines, summary over the three cell lines; type: cell-based; details: over the three cell lines (Caco-2, HD11, THP-1)
Experimental: as §3

[5] = system: biofilm-protected S. typhimurium WT; test: MBEC-HTP assay on biofilm-protected S. typhimurium; type: cell-based, Salmonella enterica subsp. enterica serovar Typhimurium LT2; details: 18 hrs incubation, 0.2×MBC to 4×MBC
Experimental: Antimicrobial susceptibility testing on biofilm-protected S. typhimurium using the MBEC™-HTP assay: The antimicrobial efficacy of the four SMs was tested once the S. Typhimurium WT was protected by the […] biofilm matrix. The experiment was performed as described by the manufacturer (innovotech.ca/MBEC_HTPInstructions_Rev1.pdf). Briefly, 150 μl of an overnight suspension of S. typhimurium WT normalized at 0.05 OD600 in LB medium was transferred into each well of a sterile, non-treated, flat bottom 96-wells plate. The plate was covered using the lid containing the pegs (innovotech; 19111), sealed with parafilm, and incubated for 36 hrs at 37° C. […] The plate was incubated for 18 hrs at 37° C., 110 rpm in the dark. After incubation, the lid was transferred into a new 96-wells plate containing 200 μl of sterile water and sonicated for 60 min at room temperature (Aquasonic model 50HT, VWR). Then the supernatant was ten-fold serial diluted, plated in agar plate, and incubated at 37° C. for 36 hrs. The lowest SM concentration giving a complete clearance was considered as the minimum biofilm eradication concentration (MBEC).

B. thetaiolaomicron = test: Activity spectrum at 200 μM, B. thetaiotaomicron; type: cell-based
Experimental: as §4

[6] = system: PhoP regulon in S. typhimurium; details: four HTS, PubChem AID #1863, #1981, #2253, #2401; cited from earlier work
L. rhamnosus GG = test: Activity spectrum at 200 μM, L. rhamnosus GG; type: cell-based, Lactobacillus rhamnosus
Experimental: as §4

L. brevis = test: Activity spectrum at 200 μM, L. brevis; type: cell-based, Lactobacillus brevis
Experimental: as §4

B. adolescentis = test: Activity spectrum at 200 μM, B. adolescentis; type: cell-based, Bifidobacterium adolescentis
Experimental: as §4

E. faecalis = test: Activity spectrum at 200 μM, E. faecalis; type: cell-based, Enterococcus faecalis
Experimental: as §4

B. longum = test: Activity spectrum at 200 μM, B. longum; type: cell-based, Bifidobacterium longum
Experimental: as §4

CC1CCC(C(C)C)C(OC(=O)Cn2c[n+](CC(=O)OC3CC(C)CCC3C(C)C)c3ccccc32)C1.[Cl-] (stereo not drawn) [SM1, 1,3-bis{2-[(2-isopropyl-5-methylcyclohexyl)oxy]-2-oxoethyl}-1H-3,1-benzimidazol-3-ium chloride]
hemolytic activity in chicken RBCs (chicken red blood cells): > 50% | effect against C. jejuni 81-176 (C. jejuni 81-176): bactericidal effects | IC50 ([1]; TYPHIMURIUM, HD11, read-out: IC 50% (μm), HD11 cells): < 6.25 µM | MBC ([1]; S. Typhimurium-infected HD11 cells, 24 hrs treatment): 12.5 µM | growth effect on C. clostridioforme (C. clostridioforme): no growth inhibition effect

CCCCCCCCCCCCCCCC[n+]1ccn(CC#N)c1.[Cl-] [SM3, 1-(cyanomethyl)-3-hexadecyl-1H-imidazol-3-ium chloride]
effect against Avian Pathogenic E. coli [2]: lethal | activity on twelve beneficial-commensal gut bacteria [3]: killing all twelve strains tested | concentration clearing internalized Salmonella [4]: 50 µM

CCCCCCCCCCCCCCCCn1c[n+](C)c2ccccc21.[Br-] [SM4, 1-hexadecyl-3-methyl-1H-3,1-benzimidazol-3-ium bromide]
effect against Avian Pathogenic E. coli [2]: lethal | activity on twelve beneficial-commensal gut bacteria [3]: killing all twelve strains tested | concentration killing biofilm-protected Salmonella [5]: 0.6 ×MBC | concentration clearing internalized Salmonella [4]: 25 µM

CCOc1cc(/C=N/N=C(N)N)ccc1OCc1ccc(Cl)cc1 [SM5, N″-{4-[(4-chlorobenzyl)oxy]-3-ethoxybenzylidene}carbonohydrazonic diamide]
growth effect on B. thetaiolaomicron (B. thetaiolaomicron): no effect | hemolytic activity in chicken RBCs (chicken red blood cells): lower than 1% | inhibition of the PhoP regulon in S. typhimurium [6]: direct or indirect inhibitor | growth effect on L. rhamnosus GG (L. rhamnosus GG): no effect | growth effect on L. brevis (L. brevis): no effect | growth effect on B. adolescentis (B. adolescentis): no effect | concentration killing biofilm-protected Salmonella [5]: 0.4 ×MBC | growth effect on E. faecalis (E. faecalis): no effect | growth effect on B. longum (B. longum): no effect
